Columns and labels:
[1] = molecular target: T1, Cbl-b (Homo sapiens, UniProt Q13191); assay: Cbl-b Degradation Method A (FACS, anti-Cbl-b antibody staining); assay type: cell-based; conditions: Cbl-b-HiBit KI Jurkat Cells, incubated at least 20 hours; for DC50: half maximal degradation, read-out: Cbl-b Degredation Method A IC50; for Dmax: Jurkat, maximum degradation observed, read-out: Cbl-b Degredation Method A Dmax (%)
T1 construct: Cbl-b-HiBit KI Jurkat Cells were purchased from Promega; host or cells: Cbl-b-HiBiT knock-in Jurkat cells
In short: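 Cbl-b-HiBit KI Jurkat cells treated with compound for at least 20 h at 37 °C, then fixed, permeabilized and stained with anti-Cbl-b antibody plus anti-rabbit AF488 secondary. Cbl-b levels read by FACS; DC50 and Dmax (percent of control) derived.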

[2] = molecular target: T1, Cbl-b; assay: Cbl-b Degradation Method B (Nano-Glo HiBiT lytic detection); assay type: cell-based; conditions: Cbl-b-HiBit KI Jurkat Cells, incubated at least 6-24 hours; for DC50: half maximal degradation, read-out: Cbl-b Degredation Method B IC50; for Dmax: maximum degradation observed, read-out: Cbl-b Degredation Method B Dmax (%)
In short: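 Cbl-b-HiBiT knock-in Jurkat cells (20,000/well) were treated after ~24 h plating with an 11-point 1:3 series for 6-24 h at 37° C. Remaining Cbl-b measured by Nano-Glo HiBiT lytic luminescence. DC50 and Dmax expressed as % of control.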

T1 sequence (Q13191 whole entry): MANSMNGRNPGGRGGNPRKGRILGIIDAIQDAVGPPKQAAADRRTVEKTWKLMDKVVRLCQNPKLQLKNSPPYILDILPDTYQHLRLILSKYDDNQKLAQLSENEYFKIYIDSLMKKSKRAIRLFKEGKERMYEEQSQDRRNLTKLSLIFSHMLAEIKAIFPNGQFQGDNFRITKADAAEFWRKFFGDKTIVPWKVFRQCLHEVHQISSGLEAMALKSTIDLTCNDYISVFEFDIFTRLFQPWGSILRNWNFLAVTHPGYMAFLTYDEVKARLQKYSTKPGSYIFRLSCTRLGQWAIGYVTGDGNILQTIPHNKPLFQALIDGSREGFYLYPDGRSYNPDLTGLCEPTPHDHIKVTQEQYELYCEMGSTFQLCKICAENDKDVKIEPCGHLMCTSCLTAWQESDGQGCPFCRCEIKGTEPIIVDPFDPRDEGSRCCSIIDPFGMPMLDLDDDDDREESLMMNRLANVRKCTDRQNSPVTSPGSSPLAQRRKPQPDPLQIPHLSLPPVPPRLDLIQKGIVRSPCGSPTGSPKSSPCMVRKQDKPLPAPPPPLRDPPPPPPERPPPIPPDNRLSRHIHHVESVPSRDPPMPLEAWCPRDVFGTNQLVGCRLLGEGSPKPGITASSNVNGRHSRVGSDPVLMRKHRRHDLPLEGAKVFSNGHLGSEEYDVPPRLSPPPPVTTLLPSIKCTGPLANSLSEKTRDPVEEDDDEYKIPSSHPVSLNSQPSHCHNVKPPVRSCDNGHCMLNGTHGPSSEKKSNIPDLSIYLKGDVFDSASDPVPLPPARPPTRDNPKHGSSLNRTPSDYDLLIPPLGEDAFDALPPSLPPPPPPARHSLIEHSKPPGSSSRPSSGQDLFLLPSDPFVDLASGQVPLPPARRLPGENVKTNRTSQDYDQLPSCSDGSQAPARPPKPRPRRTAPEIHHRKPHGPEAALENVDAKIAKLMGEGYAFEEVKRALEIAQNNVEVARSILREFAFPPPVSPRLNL

Row | SMILES | DC50 [1] | DC50 [2] | Dmax [2] | Dmax [1]
1 | Cn1cnnc1CC1(c2cccc(N3Cc4c(cc(CN5CCC(CN6CCC(COc7ccc8c(c7)C(=O)N(C7CCC(=O)NC7=O)C8=O)CC6)CC5)cc4C(F)(F)F)C3=O)c2)COC1 (stereo not drawn) [Example 84, 2-(2,6-dioxopiperidin-3-yl)-5-({1-[(1-{[2-(3-{3-[(4-methyl-4H-1,2,4-triazol-3-yl)methyl]oxetan-3-yl}phenyl)-3-oxo-7-(trifluoromethyl)-2,3-dihydro-1H-isoindol-5-yl]methyl}piperidin-4-yl)methyl]piperidin-4-yl}methoxy)-2,3-dihydro-1H-isoindole-1,3-dione] | > 500 nM | > 500 nM | – | –
2 | C[C@H]1C[C@@H](CN2CCN(c3ccc4c(c3)C(=O)N(C3CCC(=O)NC3=O)C4=O)CC2)CN(Cc2cc3c(c(C(F)(F)F)c2)CN(c2cccc(C4(Cc5nncn5C)COC4)c2)C3=O)C1 (stereo partly drawn) [Example 85, 2-(2,6-dioxopiperidin-3-yl)-5-(4-{[(3R,5S)-5-methyl-1-{[2-(3-{3-[(4-methyl-4H-1,2,4-triazol-3-yl)methyl]oxetan-3-yl}phenyl)-3-oxo-7-(trifluoromethyl)-2,3-dihydro-1H-isoindol-5-yl]methyl}piperidin-3-yl]methyl}piperazin-1-yl)-2,3-dihydro-1H-isoindole-1,3-dione] | 5 to 50 nM | 5 to 50 nM | > 70% | –
3 | C[C@@H]1C[C@@H](CN2CCN(c3ccc4c(c3)C(=O)N(C3CCC(=O)NC3=O)C4=O)CC2)CN(Cc2cc3c(c(C(F)(F)F)c2)CN(c2cccc(C4(Cc5nncn5C)COC4)c2)C3=O)C1 (stereo partly drawn) [Example 86, 2-(2,6-dioxopiperidin-3-yl)-5-(4-{[(3R,5R)-5-methyl-1-{[2-(3-{3-[(4-methyl-4H-1,2,4-triazol-3-yl)methyl]oxetan-3-yl}phenyl)-3-oxo-7-(trifluoromethyl)-2,3-dihydro-1H-isoindol-5-yl]methyl}piperidin-3-yl]methyl}piperazin-1-yl)-2,3-dihydro-1H-isoindole-1,3-dione] | > 500 nM | > 500 nM | – | –
4 | Cn1cnnc1CC1(c2cccc(N3Cc4c(cc(CN5CCC(COCCOc6ccc7c(c6)C(=O)N(C6CCC(=O)NC6=O)C7=O)CC5)cc4C(F)(F)F)C3=O)c2)COC1 (stereo not drawn) [Example 87, 2-(2,6-dioxopiperidin-3-yl)-5-(2-((1-((2-(3-(3-((4-methyl-4H-1,2,4-triazol-3-yl)methyl)oxetan-3-yl)phenyl)-3-oxo-7-(trifluoromethyl)isoindolin-5-yl)methyl)piperidin-4-yl)methoxy)ethoxy)isoindoline-1,3-dione] | 50 to 500 nM | > 500 nM | – | –
5 | Cn1cnnc1CC1(c2cccc(N3Cc4c(cc(CN5CCC(CN6CCN(c7cccc8c7C(=O)N(C7CCC(=O)NC7=O)C8=O)CC6)CC5)cc4C(F)(F)F)C3=O)c2)COC1 (stereo not drawn) [Example 88, 2-(2,6-dioxopiperidin-3-yl)-4-(4-((1-((2-(3-(3-((4-methyl-4H-1,2,4-triazol-3-yl)methyl)oxetan-3-yl)phenyl)-3-oxo-7-(trifluoromethyl)isoindolin-5-yl)methyl)piperidin-4-yl)methyl)piperazin-1-yl)isoindoline-1,3-dione] | > 500 nM | > 500 nM | – | –
6 | Cn1cnnc1CC1(c2cccc(N3Cc4c(cc(CN5CCC(COCCOCCOc6ccc7c(c6)C(=O)N(C6CCC(=O)NC6=O)C7=O)CC5)cc4C(F)(F)F)C3=O)c2)COC1 (stereo not drawn) [Example 89, 2-(2,6-dioxopiperidin-3-yl)-5-(2-{2-[(1-{[2-(3-{3-[(4-methyl-4H-1,2,4-triazol-3-yl)methyl]oxetan-3-yl}phenyl)-3-oxo-7-(trifluoromethyl)-2,3-dihydro-1H-isoindol-5-yl]methyl}piperidin-4-yl)methoxy]ethoxy}ethoxy)-2,3-dihydro-1H-isoindole-1,3-dione] | > 500 nM | > 500 nM | – | –
7 | C[C@H]1C[C@@H](CN2CCN(c3cccc4c3C(=O)N(C3CCC(=O)NC3=O)C4=O)CC2)CN(Cc2cc3c(c(C(F)(F)F)c2)CN(c2cccc(C4(Cc5nncn5C)COC4)c2)C3=O)C1 (stereo partly drawn) [Example 90, 2-(2,6-dioxopiperidin-3-yl)-4-(4-{[(3R,5S)-5-methyl-1-{[2-(3-{3-[(4-methyl-4H-1,2,4-triazol-3-yl)methyl]oxetan-3-yl}phenyl)-3-oxo-7-(trifluoromethyl)-2,3-dihydro-1H-isoindol-5-yl]methyl}piperidin-3-yl]methyl}piperazin-1-yl)-2,3-dihydro-1H-isoindole-1,3-dione] | > 500 nM | > 500 nM | – | < 35%
8 | Cn1cnnc1CC1(c2cccc(N3Cc4c(cc(CN5CCC(COCCOCCOc6cccc7c6C(=O)N(C6CCC(=O)NC6=O)C7=O)CC5)cc4C(F)(F)F)C3=O)c2)COC1 (stereo not drawn) [Example 91, 2-(2,6-dioxopiperidin-3-yl)-4-(2-{2-[(1-{[2-(3-{3-[(4-methyl-4H-1,2,4-triazol-3-yl)methyl]oxetan-3-yl}phenyl)-3-oxo-7-(trifluoromethyl)-2,3-dihydro-1H-isoindol-5-yl]methyl}piperidin-4-yl)methoxy]ethoxy}ethoxy)-2,3-dihydro-1H-isoindole-1,3-dione] | > 500 nM | > 500 nM | – | –
9 | CC1CC(CN2CC3(CCN(c4ccc5c(c4)C(=O)N(C4CCC(=O)NC4=O)C5=O)CC3)C2)CN(Cc2cc3c(c(C(F)(F)F)c2)CN(c2cccc(C4(Cc5nncn5C)COC4)c2)C3=O)C1 (stereo not drawn) [Example 92, 2-(2,6-dioxopiperidin-3-yl)-5-{2-[(5-methyl-1-{[2-(3-{3-[(4-methyl-4H-1,2,4-triazol-3-yl)methyl]oxetan-3-yl}phenyl)-3-oxo-7-(trifluoromethyl)-2,3-dihydro-1H-isoindol-5-yl]methyl}piperidin-3-yl)methyl]-2,7-diazaspiro[3.5]nonan-7-yl}-2,3-dihydro-1H-isoindole-1,3-dione] | > 500 nM | > 500 nM | – | –
10 | C[C@H]1C[C@@H](CN2CCC(CC3CCN(c4ccc5c(c4)C(=O)N(C4CCC(=O)NC4=O)C5=O)CC3)CC2)CN(Cc2cc3c(c(C(F)(F)F)c2)CN(c2cccc(C4(Cc5nncn5C)COC4)c2)C3=O)C1 (stereo partly drawn) [Example 93, 2-(2,6-dioxopiperidin-3-yl)-5-{4-[(1-{[(3S,5S)-5-methyl-1-{[2-(3-{3-[(4-methyl-4H-1,2,4-triazol-3-yl)methyl]oxetan-3-yl}phenyl)-3-oxo-7-(trifluoromethyl)-2,3-dihydro-1H-isoindol-5-yl]methyl}piperidin-3-yl]methyl}piperidin-4-yl)methyl]piperidin-1-yl}-2,3-dihydro-1H-isoindole-1,3-dione] | 5 to 50 nM | < 5 nM | < 35% | 35 to 70%
11 | CC1CC(CN2CCC(CC3CCN(c4ccc5c(c4)C(=O)N(C4CCC(=O)NC4=O)C5=O)CC3)CC2)CN(Cc2cc3c(c(C(F)(F)F)c2)CN(c2cccc(C4(Cc5nncn5C)COC4)c2)C3=O)C1 (stereo not drawn) [Example 94, 2-(2,6-dioxopiperidin-3-yl)-5-[4-({1-[(5-methyl-1-{[2-(3-{3-[(4-methyl-4H-1,2,4-triazol-3-yl)methyl]oxetan-3-yl}phenyl)-3-oxo-7-(trifluoromethyl)-2,3-dihydro-1H-isoindol-5-yl]methyl}piperidin-3-yl)methyl]piperidin-4-yl}methyl)piperidin-1-yl]-2,3-dihydro-1H-isoindole-1,3-dione] | 5 to 50 nM | < 5 nM | 35 to 70% | 35 to 70%
12 | CC1CC(N2CCC(CC3CCN(c4ccc5c(c4)C(=O)N(C4CCC(=O)NC4=O)C5=O)CC3)CC2)CN(Cc2cc3c(c(C(F)(F)F)c2)CN(c2cccc(C4(Cc5nncn5C)COC4)c2)C3=O)C1 (stereo not drawn) [Example 95, 2-(2,6-dioxopiperidin-3-yl)-5-{4-[(5′-methyl-1′-{[2-(3-{3-[(4-methyl-4H-1,2,4-triazol-3-yl)methyl]oxetan-3-yl}phenyl)-3-oxo-7-(trifluoromethyl)-2,3-dihydro-1H-isoindol-5-yl]methyl}-[1,3′-bipiperidin]-4-yl)methyl]piperidin-1-yl}-2,3-dihydro-1H-isoindole-1,3-dione] | 50 to 500 nM | > 500 nM | – | –
13 | Cn1cnnc1CC1(c2cccc(N3Cc4c(cc(CN5CCC[C@H](CN6CCC(C7CCN(c8ccc9c(c8)C(=O)N(C8CCC(=O)NC8=O)C9=O)CC7)CC6)C5)cc4C(F)(F)F)C3=O)c2)COC1 (stereo partly drawn) [Example 96, 2-(2,6-dioxopiperidin-3-yl)-5-(1′-{[(3R)-1-{[2-(3-{3-[(4-methyl-4H-1,2,4-triazol-3-yl)methyl]oxetan-3-yl}phenyl)-3-oxo-7-(trifluoromethyl)-2,3-dihydro-1H-isoindol-5-yl]methyl}piperidin-3-yl]methyl}-[4,4′-bipiperidin]-1-yl)-2,3-dihydro-1H-isoindole-1,3-dione] | > 500 nM | > 500 nM | – | –
14 | Cn1cnnc1CC1(c2cccc(N3Cc4c(cc(CN5CCC[C@H](CN6CCC(CN7CCC(CN8CCN(c9ccc%10c(c9)C(=O)N(C9CCC(=O)NC9=O)C%10=O)CC8)CC7)CC6)C5)cc4C(F)(F)F)C3=O)c2)COC1 (stereo partly drawn) [Example 97, 2-(2,6-dioxopiperidin-3-yl)-5-[4-({1-[(1-{[(3R)-1-{[2-(3-{3-[(4-methyl-4H-1,2,4-triazol-3-yl)methyl]oxetan-3-yl}phenyl)-3-oxo-7-(trifluoromethyl)-2,3-dihydro-1H-isoindol-5-yl]methyl}piperidin-3-yl]methyl}piperidin-4-yl)methyl]piperidin-4-yl}methyl)piperazin-1-yl]-2,3-dihydro-1H-isoindole-1,3-dione] | 5 to 50 nM | < 5 nM | 35 to 70% | > 70%

Reference: US20260184710A1, “CASITAS B-LINEAGE LYMPHOMA PROTOONCOGENE B (CBL-B) DEGRADING COMPOUNDS AND ASSOCIATED METHODS OF USE” (Arvinas Operations, Inc., priority 2022, published 2026)
